# Data published in patent US20230035723A1, “Treatment of Pancreatic Cancer” (SynCore Biotechnology Co., Ltd., priority 2017, published 2023).
# Structures can show the parent of a compound that is named as a salt. Where two headings read alike, the source gives them in different places.
# Key:
# PAXF PANC-1 = test: Cell lines exhibiting drug resistance (IC50); assay type: cell-based
# PAXF 546 = test: Cell lines exhibiting drug resistance (IC50); assay type: cell-based
# PAXF 1986 = test: Cell lines exhibiting drug resistance (IC50); assay type: cell-based
# PAXF 1998 = test: Cell lines exhibiting drug resistance (IC50); assay type: cell-based
# PAXF 2005 = test: Cell lines exhibiting drug resistance (IC50); assay type: cell-based
# PAXF 2035 = test: Cell lines exhibiting drug resistance (IC50); assay type: cell-based
# PAXF CAPAN-2 = test: Cell lines exhibiting drug resistance (IC50); assay type: cell-based
# PAXF HPAC = test: Cell lines exhibiting drug resistance (IC50); assay type: cell-based
# PAXF 2059 = test: Cell lines exhibiting drug resistance (IC50); assay type: cell-based
# pancreatic cancer [1] = conditions: pancreatic cancer patients; P=0.002; cited from earlier work
# [2] = test system: metastatic pancreatic cancer; conditions: first-line therapy of metastatic pancreatic cancer; cited from earlier work
# pancreatic cancer [3] = conditions: phase III study, pancreatic cancer patients; cited from earlier work
# [4] = test system: unresectable pancreatic cancer; conditions: phase III study; cited from earlier work
# [5] = test system: metastatic pancreatic cancer; conditions: first-line therapy; cited from earlier work
Compound,IC50 (PAXF PANC-1; Homo sapiens) [nM],"IC50 (PAXF 546; Homo sapiens, PAXF546) [nM]",IC50 (PAXF 1986) [nM],IC50 (PAXF 1998) [nM],IC50 (PAXF 2035) [nM],IC50 (PAXF PANC-1) [nM],IC50 (PAXF 546) [nM],also measured
C#Cc1cccc(Nc2ncnc3cc(OCCOC)c(OCCOC)cc23)c1 [Erlotinib HCl],113000,46100,100000,99100,83600,,,IC50 (PAXF 2005): 52700 nM
O=C1[O][Pt]2([NH][C@@H]3CCCC[C@H]3[NH]2)[O]C1=O [Oxaliplatin],,,1610,34600,99200,994,1240,IC50 (PAXF 2005; PAXF 2005): 12500 nM
CC[C@]1(O)C[C@H]2CN(CCc3c([nH]c4ccccc34)[C@@](C(=O)OC)(c3cc4c(cc3OC)N(C=O)[C@H]3[C@@](O)(C(=O)OC)[C@H](OC(C)=O)[C@]5(CC)C=CCN6CC[C@]43[C@@H]65)C2)C1 [Vincristine sulfate],3,247,300,8,462,,,IC50 (PAXF 2005): 45 nM
N.N.[Cl][Pt][Cl] [Cisplatin],,,4830,75700,46000,7440,11500,IC50 (PAXF CAPAN-2): 62100 nM; IC50 (PAXF HPAC): 31700 nM; IC50 (PAXF 2005; PAXF 2005): 10800 nM; IC50 (PAXF 2059): 41000 nM
O=C1c2c(O)ccc(O)c2C(=O)c2c(NCCNCCO)ccc(NCCNCCO)c21 [Mitoxantron 2HCl],,,35,240,67,10,187,IC50 (PAXF 2005; PAXF 2005): 16 nM; IC50 (PAXF 2059): 35 nM
CC[C@@]1(O)C(=O)OCc2c1cc1n(c2=O)Cc2cc3c(CN(C)C)c(O)ccc3nc2-1 [Topotecan HCl],42,80,,,,,,
CO[C@@]12[C@H](COC(N)=O)C3=C(C(=O)C(C)=C(N)C3=O)N1C[C@@H]1N[C@@H]12 [Mitomycin C],,,188,987,678,1120,465,IC50 (PAXF 2005; PAXF 2005): 276 nM
CS(=O)(=O)OC[C@H](O)[C@@H](O)COS(C)(=O)=O [Treosulfan],2020,48100,,,,,,
CC(=O)O[C@@]12CO[C@@H]1C[C@H](O)[C@@]1(C)C(=O)[C@H](O)C3=C(C)[C@@H](OC(=O)[C@H](O)[C@@H](NC(=O)OC(C)(C)C)c4ccccc4)C[C@@](O)([C@@H](OC(=O)c4ccccc4)[C@H]21)C3(C)C [Docetaxel],,104,6,15,4,,,IC50 (PAXF 2005): 100 nM; IC50 (PAXF 2059): 100 nM
CCN(CC)CCNC(=O)c1c(C)[nH]c(/C=C2\C(=O)Nc3ccc(F)cc32)c1C [Sunitinib malate],8550,7380,4240,13200,2400,,,IC50 (PAXF 2005): 7090 nM; IC50 (PAXF 2059): 16500 nM
COc1cccc2c1C(=O)c1c(O)c3c(c(O)c1C2=O)C[C@@](O)(C(=O)CO)C[C@@H]3O[C@H]1C[C@H](N)[C@H](O)[C@H](C)O1 [Doxorubicin HCl],49,134,59,1230,795,,,IC50 (PAXF 2005): 251 nM; IC50 (PAXF 2059): 131 nM
Nc1ccn([C@@H]2O[C@H](CO)[C@@H](O)[C@@H]2O)c(=O)n1 [Cytarabine],158,4640,,,,,,
CC[C@]1(O)C[C@@H]2CN(CCc3c([nH]c4ccccc34)[C@@](C(=O)OC)(c3cc4c(cc3OC)N(C)[C@H]3[C@@](O)(C(N)=O)[C@H](O)[C@]5(CC)C=CCN6CC[C@]43[C@@H]65)C2)C1 [Vindesin sulfate],,,,,,5,109,
Vinorelbine bistartrate,,,,,,2,72,
"Nc1nc2[nH]cc(CCc3ccc(C(=O)N[C@@H](CCC(=O)O)C(=O)O)cc3)c2c(=O)[nH]1 [Pemetrexed, dinatrium]",,,,,,13000,114,
Bleomycin sulfate,,,,,,149,10700,

Compound,IC50 (PAXF PANC-1; Homo sapiens) [nM],"IC50 (PAXF 546; Homo sapiens, PAXF546) [nM]",IC50 (PAXF 1986) [nM],IC50 (PAXF 1998) [nM],IC50 (PAXF 2035) [nM],IC50 (PAXF PANC-1) [nM],IC50 (PAXF 546) [nM],also measured
CN(Cc1cnc2nc(N)nc(N)c2n1)c1ccc(C(=O)N[C@@H](CCC(=O)O)C(=O)O)cc1 [Methotrexate Hydrat],,,,160,,38,129,IC50 (PAXF 2005; PAXF 2005): 10000 nM; IC50 (PAXF 2059): 31 nM
CCCS(=O)(=O)Nc1ccc(F)c(C(=O)c2c[nH]c3ncc(-c4ccc(Cl)cc4)cc23)c1F [Vemurafenib],16100,5330,9340,10800,11400,,,IC50 (PAXF 2005): 6750 nM; IC50 (PAXF 2059): 11400 nM
O=NN(CCCl)C(=O)NC1CCCCC1 [Lomustine],43600,142000,,,,,,
CC(C)C[C@H](NC(=O)[C@H](Cc1ccccc1)NC(=O)c1cnccn1)B(O)O [Bortezomib],18,5,,,,,,
O=c1[nH]cc(F)c(=O)[nH]1 [5-Fluorouracil],3230,1250,2250,7480,105000,,,IC50 (PAXF 2005): 10300 nM; median overall survival (pancreatic cancer [1]): 4.4 months
N.N.O=C([O-])C1(C(=O)[O-])CCC1.[Pt+2] [Carboplatin],,,,,,15600,17100,
O=NN(CCCl)C(=O)NCCO [Elmustin],,,,,,375000,722000,
COc1cc([C@@H]2c3cc4c(cc3[C@@H](O[C@@H]3O[C@@H]5CO[C@@H](C)O[C@H]5[C@H](O)[C@H]3O)[C@H]3COC(=O)[C@H]23)OCO4)cc(OC)c1O [Etoposide],1500,7400,,,,,,
CC(=O)O[C@H]1C(=O)[C@@]2(C)[C@H]([C@H](OC(=O)c3ccccc3)[C@]3(O)C[C@H](OC(=O)[C@H](O)[C@@H](NC(=O)c4ccccc4)c4ccccc4)C(C)=C1C3(C)C)[C@]1(OC(C)=O)CO[C@@H]1C[C@@H]2O [Paclitaxel],46,441,204,117,144,,,IC50 (PAXF CAPAN-2; Homo sapiens): 444 nM; IC50 (PAXF HPAC; Homo sapiens): 383 nM; IC50 (PAXF 2005): 312 nM; IC50 (PAXF 2059): 261 nM
CC(=O)[C@]1(O)Cc2c(O)c3c(c(O)c2[C@@H](O[C@H]2C[C@H](N)[C@H](O)[C@H](C)O2)C1)C(=O)c1ccccc1C3=O [Idarubicin],12,131,,,,,,
FOLFIRINOX,,,,,,,,median overall survival [2]: 11.1 months
CC[C@]1(O)C[C@@H]2CN(CCc3c([nH]c4ccccc34)[C@@](C(=O)OC)(c3cc4c(cc3OC)N(C)[C@H]3[C@@](O)(C(=O)OC)[C@H](OC(C)=O)[C@]5(CC)C=CCN6CC[C@]43[C@@H]65)C2)C1 [Vinblastine sulfate],1,71,,,,,,
Nc1ccn([C@@H]2O[C@H](CO)[C@@H](O)C2(F)F)c(=O)n1 [gemcitabine],,,,,,,,median overall survival (pancreatic cancer [1]): 5.6 months; one-year survival (pancreatic cancer [3]): 17%; median overall survival [4]: 8.8 months; median overall survival [2]: 6.8 months; median overall survival [5]: 6.7 months
Nc1ccn([C@@H]2O[C@H](CO)[C@@H](O)C2(F)F)c(=O)n1 [Gemcitabine HCl],5220,97,8,158,1490,,,IC50 (PAXF CAPAN-2; Homo sapiens): 3670 nM; IC50 (PAXF HPAC; Homo sapiens): 421 nM; IC50 (PAXF 2005): 390 nM; IC50 (PAXF 2059): 15 nM
CN(Cc1cnc2nc(N)nc(N)c2n1)c1ccc(C(=O)N[C@@H](CCC(=O)O)C(=O)O)cc1 [Methotrexate],10000,66,,,,,,
